Test results published in patent US7598079B2, “Assay for identifying compounds which affect stability of mRNA” (Novation Pharmaceuticals, Inc., priority 1998, dated 2009).
Like-named read-outs stand apart in the source and are kept apart here. Numbered stars: 1 amine (or outer) side, 2 acyl side, 3 side chain; on linkers, the order of the positions; unused ones are H or OH. Bridge positions count the residues as written; N and C are the ends. Square brackets hold non-standard residues; d marks the D form. Peptide text beside a SMILES is read from it. I, II: the chains in the order shown. Actinocin(9to1) = Cc1c2oc3c(C)ccc(C(=O)[*:1])c3nc-2c(C(=O)[*:2])c(N)c1=O; NMeV = CN[C@H](C(=O)O)C(C)C; Sar = CNCC(=O)O

What was measured:
Format in all cases: cell-based, human
[1] = system: THP-1 control clone No. 53 (luciferase mRNA without instability sequence); assay: Luciferase reporter gene assay, control clone No. 53 (pGL2_Neo, no instability sequence); details: for Luciferase Activity (% of Control) Clone No. 53: compound 1 μM, differentiated cells; for Luciferase Activity Clone 53 γIFN/LPS stimulated: γIFN/LPS stimulated cells, mean of three experiments
Source text: (§1) In order to obtain a vector for stable integration into THP-1 cells, a XhoI-SaII fragment of the neo resistant gene (expressing aminoglycoside 3′phosphotransferase) derived from pMC1neoPolyA (Stratagene) was subcloned into the SaII site of pGL2-Control (Promega). This resulting plasmid was called pGL2_Neo. A 30 bp fragment (containing three tandem AUUUA motifs and flanking IL-1β 3′UTR sequence) obtained by annealing two complementary synthetic oligonucleotides (see FIG. 2) was subcloned into pGL2_Neo using the PflMI restriction site. […] The lacZ gene was obtained from a HindIII/BamHI restriction digest of pSV-beta-Galactosidase (Promega) and subcloned into the HindIII/BamHI site of pGL2-Control (Promega).
(§2) THP-1 cells were then cotransfected with either pGL2_Neo and pGL2-β-galactosidase vectors (to generate control cell lines) or with pGL2_Neo30 and pGL2-β-galactosidase vectors by electroporation. 10^7 cells/ml in 1.3 mM KH2PO4, 7.36 mM Na2HPO4, 2.44 mM KCl, 124 mM NaCl, 5 mM glucose, 9.64 μM MgCl2 and 16 μM CaCl2 pH 7.2 were transfected with 20 μg of DNA in a Bio-Rad Gene Pulser (250V, 690 μF and indefinite resistance) using a 0.4 cm cuvette. Cells were subsequently cultured in RPMI medium containing 10% FBS, 2 mM L-Gln (L-glutamine), 50 μM 2-mercaptoethanol and 600 μg/ml of G418 (geneticin). After transfection of pGL2_Neo30 and pGL2_Neo into THP-1 cells, G418 resistant stable cell lines were obtained by selection with G418 and assayed for luciferase activity. Cotransfected cell lines were also assayed for β-galactosidase activity which can serve as an internal control (see Example 5 below). One cell line of each transfection was chosen for further analysis; the pGL2_Neo30/pGL2-β-galactosidase cell line was referred to as clone No. 63 and the pGL2_Neo/pGL2-β-galactosidase cell line as clone No. 53. No endogenous luciferase activity could be detected in normal THP-1 cells.
(§3) The transfected human monocytic leukaemia cell lines, clones No. 53 and 63 are grown in RPMI medium supplemented with 110 U/ml penicillin, 100 μg/ml streptomycin, 2 mM L-Gln and 2 g/l NaHCO3. Heat-treated FBS (5%) is added before use. The cells are grown to a density of 5×10^5/ml and induced to differentiate with 100 U/ml (final concentration) γIFN. Three hours later, 10 μl of LPS (5 μg/ml final concentration) is added. This time point is designated time 0. Compounds are added at various times after LPS addition as indicated.
(§4) In order to adapt the system to the use of 96 well plates, cells were grown in Packard flat bottom white polystyrene microplates (Cat. No. 6005180) in RPMI medium lacking phenol red (AMIMED). Cells were plated at 5×10^4/well. After treatment of the cells, luciferase was measured using the Packard Luc Lite system (Cat. No. 601691 1) according to the manufacturer's instructions in a final volume of 205 μl. Briefly, to a cell suspension of 5×10^5 cells/ml, γIFN (1000 U/ml, Boehringer Mannheim, No. 1050494) to a final concentration of 100 U/ml and 0.25% (v/v) Luc Lite Enhancer was added. After a 3 hour incubation LPS (50 μg/ml Sigma, L-8274) was added to give 5 μg/ml final concentration. The cells were then plated at 5×10^4/100 μl/well into flat bottom white polystyrene microplates (Packard, Cat. No. 6005180) and incubated for 16 hours. 5 μl of compound solution or control vehicle was then added and the cells were further incubated as indicated. 100 μl of luciferase substrate solution was added and the plates were covered with TopSeal-A press-on adhesive sealing film (Packard Cat. No. 6005185) before measuring luminescence with a Packard Top Count Scintillation Counter at 22° C. The luciferase signal was stable for at least 90 min.
(§5) The THP-1 cell lines, clone Nos. 63 and 53 are grown, differentiated with γIFN and stimulated with LPS identical to normal THP-1 cells. Radicicol analog A was added 16 hours after the addition of LPS and cell extracts were then taken 8 hours later or as indicated. […]

[2] = system: THP-1 clone No. 63 (luciferase mRNA with IL-1β 3′UTR instability sequence, three tandem AUUUA motifs); assay: Luciferase reporter gene assay, clone No. 63 (pGL2_Neo30 with 30 bp IL-1β 3′UTR mRNA instability sequence); details: for Luciferase Activity (% of Control) Clone No. 63: compound 1 μM; for Luciferase Activity (% of Control) Clone No. 63 / Effect on mRNA stability in the assay (Table 3 summary): differentiated cells; for Effect on mRNA stability in the assay (Table 3 summary): clone 63 versus clone 53; for Luciferase Activity Clone 63 γIFN/LPS stimulated: γIFN/LPS stimulated cells, mean of three experiments; for inhibition at 1 µM: Homo sapiens, THP-1
Source text: as §1, §2, §3, §4, §5

[3] = system: THP-1 clone No. 63 (luciferase mRNA with IL-1β 3′UTR instability sequence, three tandem AUUUA motifs); assay: as above; details: for Luciferase Activity Clone 63 Unstimulated: unstimulated cells, mean of three experiments
[4] = system: IL-1β-AU cDNA derived RNA (3′ UTR AREs deleted) in THP-1 cells; assay: RNase protection analysis of IL-1β-AU (ARE-deleted) RNA in stably transfected THP-1 cells; details: THP-1 cells stably transfected with IL-1β-AU construct
Source text: For examples 1-5, the segment of 3′ UTR of IL-1β which contains all the AREs was deleted and the resulting IL-1β-AU cDNA was subcloned into an expression vector.

[5] = system: THP-1 control clone No. 53 (luciferase mRNA without instability sequence); assay: Luciferase reporter gene assay, control clone No. 53 (pGL2_Neo, no instability sequence); details: 10 μM; unstimulated cells; mean of three experiments
[6] = system: THP-1 clone 53 (pGL2-β-galactosidase, lacZ without mRNA instability sequences); assay: β-galactosidase internal control activity, clone 53; details: mean of three experiments; for β-galactosidase activity Clone 53 Unstimulated: unstimulated cells; for β-galactosidase activity Clone 53 γIFN/LPS stimulated: γIFN/LPS stimulated cells
Source text: as §1, §2
(§6) In the previous examples, test compounds were assayed by comparing their activity in two separate cell lines (clone Nos. 53 and 63). However, clone 63 was cotransfected with two separate plasmids: one plasmid (pGL2_Neo30) contained the luciferase gene with the 30 bp instability sequence driven by the SV40 promoter and the other plasmid (pGL2-β-galactosidase, FIG. 3B) contained the lacZ gene driven by the SV40 promoter but contained no mRNA instability sequences. The β-galactosidase activity of this cell line should not be affected by exposure of the cells to compounds which promote mRNA instability via mRNA instability sequences. As a result, one should be able to screen for compounds having mRNA instability activity by simply comparing luciferase activity in unstimulated cells versus stimulated cells and comparing the β-galactosidase activity in these same cells. […]

[7] = system: THP-1 clone 63 (pGL2-β-galactosidase, lacZ without mRNA instability sequences); assay: β-galactosidase internal control activity, clone 63; details: mean of three experiments; for β-galactosidase activity Clone 63 Unstimulated: unstimulated cells; for β-galactosidase activity Clone 63 γIFN/LPS stimulated: γIFN/LPS stimulated cells
Source text: as §1, §2, §6

[8] = system: THP-1 clones No. 53 and 63 (luciferase); assay: Half life of luciferase mRNA and protein after addition of compounds, clones No. 53 and 63; details: after 8 hours level comparable to radicicol analog A (1 μM)
Source text: To measure mRNA degradation using luciferase protein activity it is important to know the half life of the luciferase enzyme in order to determine an optimal time for assaying for potential mRNA destabilizing agents by way of luciferase protein stability. The possibility exists that mRNA could be degraded but due to a long half life of the protein, high enzyme activities could persist. Therefore we analyzed luciferase activities after addition of the transcriptional inhibitor actinomycin D (act. D) or the translational inhibitor cycloheximide (CHX). […] In view of this relatively short half life of the luciferase enzyme, it is safe to assess substances for activity on mRNA degradation as early as 8 hours after compound addition.

Compound: C=C(C/C=C/C(C)(C)O)[C@@H]1CC[C@]2(C)[C@@H]1CC[C@@H]1[C@@]3(C)CC[C@H](O)C(C)(C)[C@@H]3CC[C@]12C [(17α)-23-(E)-dammara-20,23-dien-3β,25-diol]
- Luciferase Activity (% of Control) Clone No. 53 [1]: 116 % of Control
- Luciferase Activity (% of Control) Clone No. 63 [2]: 91 % of Control

Compound: C[C@@H]1C[C@H]2[C@@H]3CCC4=CC(=O)C=C[C@]4(C)[C@@]3(F)[C@@H](O)C[C@]2(C)[C@@]1(O)C(=O)CO [Dexamethasone]
- Luciferase Activity (% of Control) Clone No. 53 [1]: 72 % of Control
- Luciferase Activity (% of Control) Clone No. 63 [2]: 63 % of Control

Compound: COc1cc(O)c2c(c1OC)/C=C/C[C@H](O)[C@H](O)C(=O)/C=C\C[C@H](C)OC2=O [Radicicol analog A, radicicol analog A]
- Luciferase Activity Clone 53 γIFN/LPS stimulated ([1]; 1 μM): 88 % control
- Luciferase Activity Clone 53 γIFN/LPS stimulated ([1]; 10 μM): 63 % control
- Luciferase Activity (% of Control) Clone No. 53 [1]: 120 % of Control
- Effect on control clone (No. 53) at high concentrations (cytotoxicity or inhibitory activity on transcription) ([1]; concentrations higher than 5×10^−6 M): also inhibited the control clone
- Effect on luciferase activity of control clone No. 53 ([1]; up to 5×10^−6M): no effects
- Effect on mRNA stability in the assay (Table 3 summary) ([2]; 1 μM): clear effect on mRNA stability
- Luciferase Activity Clone 63 γIFN/LPS stimulated ([2]; 1 μM): 7 % control
- Luciferase Activity Clone 63 γIFN/LPS stimulated ([2]; 10 μM): 2 % control
- inhibition at 1 µM ([2]; 1 μM, differentiated clone No. 63, 8 hours, read-out: Inhibition of luciferase activity, greatest in some cases): 93%
- inhibition at 1 µM ([2]; 1 μM, differentiated clone No. 63, added 16 h after LPS, extracts 8 hours later, read-out: Inhibition of luciferase activity, on average): 50%
- Luciferase Activity (% of Control) Clone No. 63 [2]: 49 % of Control
- Concentration dependence of luciferase inhibition in differentiated clone No. 63 ([2]; differentiated clone No. 63, 8 hr. treatment (FIG. 8)): Concentration dependent inhibition of luciferase activity
- Reduction of luciferase activity in undifferentiated clone No. 63 ([3]; 1 μM, undifferentiated cells, 8 hr. treatment): only a limited reduction of luciferase activity
- Luciferase Activity Clone 63 Unstimulated ([3]; 1 μM): 63 % control
- Luciferase Activity Clone 63 Unstimulated ([3]; 10 μM): 11 % control
- Response of AU-less derived RNA to compound (RNase protection) [4]: showed resistance
- Luciferase Activity Clone 53 Unstimulated [5]: 87 % control
- β-galactosidase activity Clone 53 Unstimulated ([6]; 1 μM): 99 % control
- β-galactosidase activity Clone 53 γIFN/LPS stimulated ([6]; 1 μM): 98 % control
- β-galactosidase activity Clone 53 Unstimulated ([6]; 10 μM): 103 % control
- β-galactosidase activity Clone 53 γIFN/LPS stimulated ([6]; 10 μM): 62 % control
- β-galactosidase activity Clone 63 Unstimulated ([7]; 1 μM): 96 % control
- β-galactosidase activity Clone 63 γIFN/LPS stimulated ([7]; 1 μM): 97 % control
- β-galactosidase activity Clone 63 Unstimulated ([7]; 10 μM): 84 % control
- β-galactosidase activity Clone 63 γIFN/LPS stimulated ([7]; 10 μM): 70 % control

Compound: O=C1CCC(N2C(=O)c3ccccc3C2=O)C(=O)N1 (centres unmarked) [Thalidomide]
- Luciferase Activity (% of Control) Clone No. 53 [1]: 98 % of Control
- Luciferase Activity (% of Control) Clone No. 63 [2]: 112 % of Control

Compound: Cc1c2oc3c(C)ccc(C(=O)N[C@@H]4C(=O)N[C@H](C(C)C)C(=O)N5CCC[C@H]5C(=O)N(C)CC(=O)N(C)[C@@H](C(C)C)C(=O)O[C@@H]4C)c3nc-2c(C(=O)N[C@@H]2C(=O)N[C@H](C(C)C)C(=O)N3CCC[C@H]3C(=O)N(C)CC(=O)N(C)[C@@H](C(C)C)C(=O)O[C@@H]2C)c(N)c1=O [actinomycin D] (I: T[dV]P[Sar][NMeV] / II: T[dV]P[Sar][NMeV]; ester I:1-I:C, II:1-II:C; linker I:N-II:N via Actinocin(9to1))
- Luciferase activities after addition of transcriptional inhibitor ([8]; 20 μg/ml): rapidly declined

Compound: C[C@@H]1C[C@@H]([C@H](O)CC2CC(=O)NC(=O)C2)C(=O)[C@@H](C)C1 [cycloheximide]
- Luciferase activities after addition of translational inhibitor ([8]; 20 μM): rapidly declined

Compound: Radicicol
- Luciferase Activity (% of Control) Clone No. 53 [1]: 98 % of Control
- Effect on mRNA stability in the assay (Table 3 summary) ([2]; 1 μM): clear effect on mRNA stability
- Luciferase Activity (% of Control) Clone No. 63 [2]: 47 % of Control

Compound: Stemphon
- Luciferase Activity (% of Control) Clone No. 53 [1]: 95 % of Control
- Luciferase Activity (% of Control) Clone No. 63 [2]: 90 % of Control
